This note sets out measurements from patent US12371676B2, “Circularly permutated haloalkane transferase fusion molecules” (MAX-PLANCK-GESELLSCHAFT ZUR FÖRDERUNG DER WISSENSCHAFTEN E. …, priority 2019, dated 2025).

No end group written: not given here.

A word on the Kd: it is the constant that tells how readily two partners part at equilibrium. A word on the solubility: it is how much of the substance goes into solution per volume. A higher solubility goes with a readily soluble substance.

Series [1] addresses T1, HaloTag7D106A (Rhodococcus rhodochrous, UniProt P0A3G2, A155T/A167V/A172T/A224E/C128F/C176G/D106A/D78G/E160K/E257K/H272N/K175M/K195N/L47V/L88M/N227D/P291S/S2A/S58T/T264A/Y273L/Y87F).
T1 construct: made in house
In words: Fluorescence intensity based binding assay of fluorogenic HaloTag ligands. The conditions noted are these: 25 nM fluorogenic dye. The protocol:
FIG. 3 Affinities of fluorogenic HaloTag™ ligands to HaloTag7D106A: The catalytically dead variant HaloTag7D106A was titrated against 3 different fluorogenic HaloTag™ ligands at 25 nM in a fluorescence intensity based binding assay (Halo-Siliconrhodamine, Halo-Janelia Fluor 646 and Halo-Janelia Fluor 635). Structures of the fluorogenic ligands are shown in each graph. Data were fitted to a one-site binding model and derived Kd values are shown in the graph. Due to the low affinity of the fluorogenic substrates, data points at […] were extrapolated based on fully labelled Halo Tag™ 7 (resembling complete binding) to improve fitting. Data points at 1 nM correspond to values without any protein added, but were placed at low concentrations to appear on the logarithmic scale. All experiments were performed in triplicates, error bars and annotated uncertainties represent standard deviations.
(§1) The inventors decided to perform the experiment with some representative fluorescent HaloTag™ substrates. An exchange of the aspartate106 residue in the active site by an alanine, removes the nucleophile responsible for the self labeling reaction and eliminates the catalytic activity of the protein. Catalytically dead mutants of HaloTag™ 7 (HaloTag™ 7D106A) and cpHaloΔ9mer (cpHalo_9merD106A) were generated to measure substrate affinities without displacement of the equilibrium by the enzymatic reaction.
(§2) Affinities for the different fluorescent substrates towards HaloTag™ 7D106A were determined in an FP binding assay (FIG. 2), while affinities of fluorogenic silcon-rhodamine derived substrates were measured by a fluorescence intensity based binding assay (FIG. 3), since binding of the fluorogenic ligands by HaloTag™ 7 engenders a strong increase of fluorescence. In both cases Halo Tag7D106A concentrations ranging from 0 μM to 100 μM were titrated against 25 nM of dye. […] The observed affinities are in agreement with labelling kinetics recorded with different substrates (data not shown). […]

The target of series [2] is T1, HaloTag7D106A. In words: FP binding assay of fluorescent HaloTag ligands. The protocol: FIG. 2 Affinities of fluorescent Halo Tag™ ligands to HaloTag7D106A: The catalytically dead variant HaloTag7D106A was titrated against 5 different fluorescent HaloTag™ ligands at 25 nM in an FP binding assay (Halo-carbopyronine, Halo-TMR, Halo-TMR-azetidine, Halo-Oregon Green™, Halo Alexa Fluor™ 488). Structures of the fluorescent ligands are shown in each graph. Data points at 0.1 nM and 1 nM correspond to values without any protein added, but were placed at low concentrations to appear on the logarithmic scale. All experiments were performed in triplicates, error bars and annotated uncertainties represent standard deviations.
as §1
Affinities for the different fluorescent substrates towards HaloTag™ 7D106A were determined in an FP binding assay (FIG. 2), while affinities of fluorogenic silcon-rhodamine derived substrates were measured by a fluorescence intensity based binding assay (FIG. 3), since binding of the fluorogenic ligands by HaloTag™ 7 engenders a strong increase of fluorescence. In both cases Halo Tag7D106A concentrations ranging from 0 μM to 100 μM were titrated against 25 nM of dye. […] The observed affinities are in agreement with labelling kinetics recorded with different substrates (data not shown). In general, fluorogenic substrates have lower affinities to HaloTag7D106A than non-fluorogenic substrates, except for Halo-Alexa Fluor™ 488 that features an affinity in the same range. Additionally, within the Silicon rhodamine derivatives the presence of an azetidine or 3-fluoroazetidine moiety has an influence on the binding affinity which is more pronounced compared to the rhodamine structure. Affinities of fluorescent HaloTag™ ligands presenting the best affinities for HaloTag™ 7 were tested with cpHaloΔ9merD106A in an FP binding assay and results were compared to the measurements with HaloTag7D106A (FIG. 4, table 1).

Series [3] deals with cpHaloΔ9merD106A (Rhodococcus rhodochrous, UniProt P0A3G2, A167V/A172T/A224E/A292T/C128F/C176G/D106A/D78G/E160K/E257K, form not given/H272N/K175M/K195N/L47V/L88M/N227D/P291S/S58T/T264A/Y273L/Y87F). Put plainly: FP binding assay of fluorescent HaloTag ligands. As to conditions: 25 nM dye. The method, then: FIG. 4 Comparison of HaloTag™ 7D106A and cpHaloΔ9merD106A fluorescent substrate binding: The catalytically dead variant […] (blue) was titrated against 3 different fluorescent Halo Tag™ ligands at 25 nM in an FP binding assay (Halo-TMR, Halo-TMR-azetidine and Halo-carbopyronine). Structures of the respective fluorescent ligands are shown above each graph. Data were fitted to a one-site binding model and derived Kd values are shown in the graphs. Data points at 0.01 nM and 0.1 nM correspond to values without any protein added, but were placed at low concentrations to appear on the logarithmic scale. Data were compared to HaloTag™ 7D106A binding of the same fluorophores (red). Differences in binding affinity are indicated by the relative fold change of Kd values. All experiments were performed in triplicate, error bars represent standard deviations.
Sequence of cpHaloΔ9merD106A (P0A3G2 other isoform, or with tags, fused parts or gaps with the stated changes, form open): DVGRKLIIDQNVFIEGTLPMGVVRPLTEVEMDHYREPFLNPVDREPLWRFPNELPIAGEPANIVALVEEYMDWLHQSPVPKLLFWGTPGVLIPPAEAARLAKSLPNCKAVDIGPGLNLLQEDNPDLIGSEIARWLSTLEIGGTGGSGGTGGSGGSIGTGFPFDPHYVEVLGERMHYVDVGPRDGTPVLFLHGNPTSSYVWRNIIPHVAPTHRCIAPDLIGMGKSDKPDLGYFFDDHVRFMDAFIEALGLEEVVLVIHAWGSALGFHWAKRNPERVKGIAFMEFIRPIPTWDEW
as §1, §2

Series [4] deals with T2, cpHaloΔ9mer (Rhodococcus rhodochrous, UniProt P0A3G2, C128F/D78G/L47V/L88M/S58T/Y87F).
T2 construct: made in house
T2 sequence (P0A3G2 other isoform, or with tags, fused parts or gaps L47V/S58T/D78G/Y87F/L88M/C128F): as the sequence (P0A3G2 other isoform, or with tags, fused parts or gaps with the stated changes, form open) above, with A258D counted along it
In words: Background labelling of cpHaloΔ9mer by in gel fluorescence. As to conditions: cpHaloΔ9mer 1 μM, 2 μM fluorescent ligand, 37° C. It counts as biochemical. The protocol:
FIG. 5 Background labeling of cpHaloΔ9mer: Background labeling of cpHaloΔ9mer (1 μM) in presence of 2 μM fluorescent ligands (at 37° C.) was determined via in gel fluorescence measurements. Samples were denatured and analysed via SDS-PAGE followed by in gel fluorescence scanning (top; gel is represented in false colors to highlight dim bands). Intensities were normalized to Halo Tag™ 7 labeled with the respective fluorophore (bottom).
A well performing protein complementation assay requires a low background. The inventors thus measured the extent of background labelling of cpHaloΔ9mer with different fluorophores (Halo-TMR, Halo-CPY and Halo-SiR). Therefore, cpHaloΔ9mer was incubated with an excess of the different fluorescent ligands.
The labelling efficiency at 37° C. and at different time points was determined via in gel fluorescence measurements (FIG. 5). […] These findings are in accordance to fluorescent ligand affinities (FIG. 4). Indeed, Halo-CPY has the highest affinity to cpHaloΔ9mer and already presents some affinity for the ligand at 2 μM engendering a labelling which still remains marginal considering the experimental setup.

The nature of series [5]: physchem. As to conditions: pH 7.3.

T1 sequence (P0A3G2 other isoform, or with tags, fused parts or gaps with the stated changes): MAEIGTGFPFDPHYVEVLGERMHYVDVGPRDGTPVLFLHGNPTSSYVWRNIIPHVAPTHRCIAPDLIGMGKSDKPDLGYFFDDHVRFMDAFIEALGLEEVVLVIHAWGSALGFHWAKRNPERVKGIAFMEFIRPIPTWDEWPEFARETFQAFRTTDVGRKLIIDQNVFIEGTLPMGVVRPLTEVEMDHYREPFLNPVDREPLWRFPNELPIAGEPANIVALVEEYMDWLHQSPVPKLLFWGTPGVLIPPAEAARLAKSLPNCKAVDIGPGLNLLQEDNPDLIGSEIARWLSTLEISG

Molecule `C[Si]1(C)C2=CC(=[N+]3CC(F)C3)C=CC2=C(c2cc(C(=O)NCCOCCOCCCCCCCl)ccc2C(=O)O)c2ccc(N3CC(F)C3)cc21` (stereo not drawn) [1-(10-(2-carboxy-5-((2-(2-((6-chlorohexyl)oxy)ethoxy)ethyl)carbamoyl)phenyl)-7-(3-fluoroazetidin-1-yl)-5,5-dimethyldibenzo[b,e]silin-3(5H)-ylidene)-3-fluoroazetidin-1-ium] yielded a Kd in series [1] of 172 µM.
For `N=c1ccc2c(-c3cc(C(=O)NCCOCCOCCCCCCCl)ccc3C(=O)O)c3ccc(N)c(S(=O)(=O)O)c3oc-2c1S(=O)(=O)O` [Halo-Alexa Fluor 488, 6-amino-9-(2-carboxy-5-((2-(2-((6-chlorohexyl)oxy)ethoxy)ethyl)carbamoyl)phenyl)-3-iminio-3H-xanthene-4,5-disulfonate], in series [2] (HaloTag7D106A, FP binding assay, 25 nM dye, one-site binding model, read-out: Kd), the Kd is 94 µM.
In series [2], `O=C(NCCOCCOCCCCCCCl)c1ccc(C(=O)O)c(-c2c3cc(F)c(=O)cc-3oc3cc(O)c(F)cc23)c1` [Halo-Oregon Green, 4-((2-(2-((6-chlorohexyl)oxy)ethoxy)ethyl)carbamoyl)-2-(2,7-difluoro-6-hydroxy-3-oxo-3H-xanthen-9-yl)benzoic acid] showed a Kd of 39.6 µM.
Take `CN(C)c1ccc2c(c1)C(C)(C)C1=CC(=[N+](C)C)C=CC1=C2c1cc(C(=O)NCCOCCOCCCCCCCl)ccc1C(=O)[O-]` [Halo-carbopyronine, N-(10-(2-carboxy-5-((2-(2-((6-chlorohexyl)oxy)ethoxy)ethyl)carbamoyl)phenyl)-7-(dimethylamino)-9,9-dimethylanthracen-2(9H)-ylidene)-N-methylmethanaminium]: the Kd in series [2] was 0.622 µM; in series [3], 90.5 µM. Further, the “background labelling of cpHaloΔ9mer” value in series [4] is given as “slightly stronger background labelling”.
The molecule `CN(C)c1ccc2c(c1)[Si](C)(C)C1=CC(=[N+](C)C)C=CC1=C2c1cc(C(=O)NCCOCCOCCCCCCCl)ccc1C(=O)O` [Halo-silicon-rhodamine, N-(10-(2-carboxy-5-((2-(2-((6-chlorohexyl)oxy)ethoxy)ethyl)carbamoyl)phenyl)-7-(dimethylamino)-5,5-dimethyldibenzo[b,e]silin-3(5H)-ylidene)-N-methylmethanaminium] gave a Kd in series [1] of 22.7 µM. In addition, the “background labelling of cpHaloΔ9mer” value in series [4] is “Very low background labelling”.
Turning to `C[Si]1(C)C2=CC(=[N+]3CCC3)C=CC2=C(c2cc(C(=O)NCCOCCOCCCCCCCl)ccc2C(=O)O)c2ccc(N3CCC3)cc21` [Halo-silicon-rhodamine-azetidine (JF646), 1-(7-(azetidin-1-yl)-10-(2-carboxy-5-((2-(2-((6-chlorohexyl)oxy)ethoxy)ethyl)-carbamoyl)phenyl)-5,5-dimethyldibenzo[b,e]silin-3(5H)-ylidene)azetidin-1-ium], in series [1], the affinity, expressed as Kd, was 54.6 µM.
Regarding `CN(C)c1ccc2c(-c3cc(C(=O)NCCOCCOCCCCCCCl)ccc3C(=O)[O-])c3ccc(=[N+](C)C)cc-3oc2c1` [Halo-tetramethylrhodamine, N-(9-(2-carboxy-5-((2-(2-((6-chlorohexyl)oxy)ethoxy)ethyl)carbamoyl)phenyl)-6-(dimethylamino)-3H-xanthen-3-ylidene)-N-methylmethanaminium], the Kd was determined as 6.68 µM in series [2] and 115 µM in series [3]. Further, the “background labelling of cpHaloΔ9mer” value in series [4] is reported as “Very low background labelling”.
Take `O=C(NCCOCCOCCCCCCCl)c1ccc(C(=O)[O-])c(-c2c3ccc(=[N+]4CCC4)cc-3oc3cc(N4CCC4)ccc23)c1` [Halo-tetramethylrhodamine-azetidine, 1-(6-(azetidin-1-yl)-9-(2-carboxy-5-((2-(2-((6-chlorohexyl)oxy)ethoxy)ethyl)carbamoyl)-phenyl)-3H-xanthen-3-ylidene)azetidin-1-ium]: the Kd in series [2] worked out at 4.4 µM; in series [3], 227 µM.
In turn, ARETFQAFR [9mer peptide] gave a solubility in series [5] of about 30 mM.
